Assays:
[1] = biological target: T1, Muscarinic acetylcholine receptor M5 (Homo sapiens, UniProt P08912); type: cell membranes, CHO-K1, Membrane; conditions: cho-k1; also: in other assays of this panel Not Active means under 50% inhibition at 10 µM
T1 sequence (P08912 whole entry): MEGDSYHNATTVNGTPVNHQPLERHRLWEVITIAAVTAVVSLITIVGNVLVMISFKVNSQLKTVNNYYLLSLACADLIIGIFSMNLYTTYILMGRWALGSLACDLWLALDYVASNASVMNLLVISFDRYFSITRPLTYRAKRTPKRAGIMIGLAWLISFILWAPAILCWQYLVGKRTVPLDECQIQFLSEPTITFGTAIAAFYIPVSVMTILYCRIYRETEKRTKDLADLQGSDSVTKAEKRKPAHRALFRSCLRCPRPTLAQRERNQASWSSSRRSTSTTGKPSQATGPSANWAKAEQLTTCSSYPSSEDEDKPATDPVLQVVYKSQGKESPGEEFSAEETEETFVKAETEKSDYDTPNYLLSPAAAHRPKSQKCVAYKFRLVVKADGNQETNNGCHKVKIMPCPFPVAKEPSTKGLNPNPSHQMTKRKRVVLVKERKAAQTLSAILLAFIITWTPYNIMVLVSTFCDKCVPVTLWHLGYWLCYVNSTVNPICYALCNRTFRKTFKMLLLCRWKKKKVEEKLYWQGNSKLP

Cytochrome P450 1A2 = biological target: T2, Cytochrome P450 1A2 (Homo sapiens, UniProt P05177); conditions: bti-tn-5b1-4; also: in other assays of this panel Not Active means under 50% inhibition at 10 µM
T2 sequence (P05177 whole entry): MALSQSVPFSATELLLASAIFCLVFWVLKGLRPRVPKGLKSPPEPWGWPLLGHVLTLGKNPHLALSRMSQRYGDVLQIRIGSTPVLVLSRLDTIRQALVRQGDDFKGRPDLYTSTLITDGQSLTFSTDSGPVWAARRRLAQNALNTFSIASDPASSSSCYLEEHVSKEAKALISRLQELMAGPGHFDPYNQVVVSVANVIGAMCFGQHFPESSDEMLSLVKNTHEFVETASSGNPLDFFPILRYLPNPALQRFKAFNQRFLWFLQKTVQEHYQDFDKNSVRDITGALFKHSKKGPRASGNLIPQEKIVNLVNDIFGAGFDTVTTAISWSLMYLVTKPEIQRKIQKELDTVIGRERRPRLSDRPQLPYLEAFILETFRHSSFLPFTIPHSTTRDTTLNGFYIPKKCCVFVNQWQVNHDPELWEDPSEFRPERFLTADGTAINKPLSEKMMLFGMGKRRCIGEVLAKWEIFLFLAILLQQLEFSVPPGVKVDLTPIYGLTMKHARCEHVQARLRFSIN

[2] = biological target: T3, Muscarinic acetylcholine receptor M2 (Homo sapiens, UniProt P08172); type: cell membranes, CHO-K1, Membrane; conditions: cho-k1; also: in other assays of this panel Not Active means under 50% inhibition at 10 µM
T3 sequence (P08172 whole entry): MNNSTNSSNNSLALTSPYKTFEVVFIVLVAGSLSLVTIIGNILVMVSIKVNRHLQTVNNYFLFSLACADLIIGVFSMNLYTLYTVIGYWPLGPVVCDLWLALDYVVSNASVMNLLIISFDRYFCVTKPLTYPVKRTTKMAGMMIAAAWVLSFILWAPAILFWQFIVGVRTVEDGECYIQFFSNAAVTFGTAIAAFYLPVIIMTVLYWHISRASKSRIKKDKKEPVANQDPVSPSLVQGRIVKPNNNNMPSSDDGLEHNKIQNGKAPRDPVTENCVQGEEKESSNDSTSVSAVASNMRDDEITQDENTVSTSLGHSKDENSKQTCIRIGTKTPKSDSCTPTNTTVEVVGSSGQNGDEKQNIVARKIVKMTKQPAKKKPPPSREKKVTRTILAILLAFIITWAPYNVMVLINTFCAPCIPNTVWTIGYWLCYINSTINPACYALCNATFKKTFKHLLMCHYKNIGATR

Estrogen receptor = biological target: T4, Estrogen receptor (Homo sapiens, UniProt P03372); conditions: sf9; also: in other assays of this panel Not Active means under 50% inhibition at 10 µM
T4 sequence (P03372 whole entry): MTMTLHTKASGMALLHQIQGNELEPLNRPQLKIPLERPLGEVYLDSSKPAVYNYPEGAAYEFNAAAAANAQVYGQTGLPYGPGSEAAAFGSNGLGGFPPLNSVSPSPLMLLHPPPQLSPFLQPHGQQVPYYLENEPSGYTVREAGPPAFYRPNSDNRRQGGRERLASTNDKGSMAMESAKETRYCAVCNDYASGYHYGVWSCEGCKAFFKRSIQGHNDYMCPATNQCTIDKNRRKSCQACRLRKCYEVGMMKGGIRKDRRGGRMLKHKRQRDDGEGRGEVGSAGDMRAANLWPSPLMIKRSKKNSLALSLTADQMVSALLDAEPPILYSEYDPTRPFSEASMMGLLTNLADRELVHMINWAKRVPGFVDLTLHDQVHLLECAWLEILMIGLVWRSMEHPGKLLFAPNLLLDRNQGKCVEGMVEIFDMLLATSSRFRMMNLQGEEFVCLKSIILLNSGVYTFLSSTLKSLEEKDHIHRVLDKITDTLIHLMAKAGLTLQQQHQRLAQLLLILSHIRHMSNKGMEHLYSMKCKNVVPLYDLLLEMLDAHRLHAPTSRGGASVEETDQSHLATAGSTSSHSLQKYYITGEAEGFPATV

[3] = biological target: Mitogen-activated protein kinase 1 (Homo sapiens, UniProt P28482); experiment: DRUGMATRIX: Protein Serine/Threonine Kinase, ERK2 enzyme inhibition (substrate: Myelin Basic Protein); parameters: species or system Escherichia coli; conditions: Not Active = under 50% inhibition at 10 µM
Chain of Mitogen-activated protein kinase 1 (P28482 whole entry): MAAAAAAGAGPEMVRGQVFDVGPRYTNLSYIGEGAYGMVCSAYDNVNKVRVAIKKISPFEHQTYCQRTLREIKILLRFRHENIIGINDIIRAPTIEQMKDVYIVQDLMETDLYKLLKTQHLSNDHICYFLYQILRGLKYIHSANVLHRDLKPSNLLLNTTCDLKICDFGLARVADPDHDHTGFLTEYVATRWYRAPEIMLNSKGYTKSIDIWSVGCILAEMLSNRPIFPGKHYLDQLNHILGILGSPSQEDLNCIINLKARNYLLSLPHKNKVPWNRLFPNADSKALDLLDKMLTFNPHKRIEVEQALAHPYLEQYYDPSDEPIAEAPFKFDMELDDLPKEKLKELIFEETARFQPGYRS

[4] = biological target: T5, Alpha-1A adrenergic receptor (Rattus norvegicus, UniProt P43140); experiment: DRUGMATRIX: Alpha-1A adrenergic receptor radioligand binding (ligand: prazosin); type: cell membranes, Wistar, Submaxillary gland, Membrane; conditions: Not Active = under 50% inhibition at 10 µM
T5 sequence (P43140 whole entry): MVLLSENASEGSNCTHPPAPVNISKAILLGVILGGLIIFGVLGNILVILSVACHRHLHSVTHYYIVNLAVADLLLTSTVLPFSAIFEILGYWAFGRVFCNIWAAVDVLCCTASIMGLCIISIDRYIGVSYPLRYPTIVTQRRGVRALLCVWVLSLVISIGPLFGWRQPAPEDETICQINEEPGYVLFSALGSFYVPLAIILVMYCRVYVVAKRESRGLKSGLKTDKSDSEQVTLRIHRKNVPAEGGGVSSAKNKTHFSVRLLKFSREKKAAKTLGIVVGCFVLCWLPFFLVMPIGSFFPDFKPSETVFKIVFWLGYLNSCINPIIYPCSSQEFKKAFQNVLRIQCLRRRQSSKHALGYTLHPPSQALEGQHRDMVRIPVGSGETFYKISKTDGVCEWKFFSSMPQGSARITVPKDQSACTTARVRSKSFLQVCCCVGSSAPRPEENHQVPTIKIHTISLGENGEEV

COc1ccc2cc(CC(=O)O)ccc2c1
Not Active: IC50 [1] | IC50 (Cytochrome P450 1A2) | Ki (Cytochrome P450 1A2) | IC50 [2] | IC50 (Estrogen receptor) | IC50 [3] | IC50 [4]

CC=CC(=O)N(CC)c1ccccc1C
Not Active: IC50 [1] | IC50 (Cytochrome P450 1A2) | Ki (Cytochrome P450 1A2) | IC50 [2] | IC50 (Estrogen receptor) | IC50 [3] | IC50 [4]

C=C1C(=O)O[C@@H]2C3O[C@]3(C)CC/C=C(\C)CC[C@@H]12 (some centres undefined)
Not Active: IC50 [1] | IC50 (Cytochrome P450 1A2) | Ki (Cytochrome P450 1A2) | IC50 [2] | IC50 (Estrogen receptor) | IC50 [3] | IC50 [4]

CC(/C=C1\SC(=S)N(CC(=O)O)C1=O)=C\c1ccccc1
Not Active: IC50 [1] | IC50 (Cytochrome P450 1A2) | Ki (Cytochrome P450 1A2) | IC50 [2] | IC50 (Estrogen receptor) | IC50 [3] | IC50 [4]

O=c1cc(-c2ccccc2)oc2c1ccc1ccccc12 [ALPHA-NAPHTHOFLAVONE]
Not Active: IC50 [1] | IC50 [2] | IC50 (Estrogen receptor) | IC50 [3] | IC50 [4]

NCC[C@H](O)C(=O)N[C@@H]1C[C@H](N)[C@@H](O[C@H]2O[C@H](CN)[C@@H](O)[C@H](O)[C@H]2O)[C@H](O)[C@H]1O[C@H]1O[C@H](CO)[C@@H](O)[C@H](N)[C@H]1O [AMIKACIN]
Not Active: IC50 [1] | IC50 (Cytochrome P450 1A2) | Ki (Cytochrome P450 1A2) | IC50 [2] | IC50 (Estrogen receptor) | IC50 [3] | IC50 [4]

CCCCOC(=O)c1ccc(N)cc1 [BUTAMBEN]
Not Active: IC50 [1] | IC50 [2] | IC50 (Estrogen receptor) | IC50 [3] | IC50 [4]

O=C(O)c1cn(C2CC2)c2cc(N3CCNCC3)c(F)cc2c1=O [CIPROFLOXACIN]
Not Active: IC50 [1] | IC50 [2] | IC50 (Estrogen receptor) | IC50 [3] | IC50 [4]

O=C1OCCN1/N=C/c1ccc([N+](=O)[O-])o1 [FURAZOLIDONE]
Not Active: IC50 [1] | IC50 [2] | IC50 (Estrogen receptor) | IC50 [3] | IC50 [4]

NCC(=O)O [GLYCINE]
Not Active: IC50 [1] | IC50 [2] | IC50 (Estrogen receptor) | IC50 [3] | IC50 [4]

NS(=O)(=O)c1cc2c(cc1Cl)NCNS2(=O)=O [HYDROCHLOROTHIAZIDE]
Not Active: IC50 [1] | IC50 [2] | IC50 (Estrogen receptor) | IC50 [3] | IC50 [4]

Fc1ccc([C@@H]2CCNC[C@H]2COc2ccc3c(c2)OCO3)cc1 [PAROXETINE]
Not Active: IC50 (Cytochrome P450 1A2) | Ki (Cytochrome P450 1A2) | IC50 (Estrogen receptor) | IC50 [3] | IC50 [4]

CC(C)(S)[C@@H](N)C(=O)O [PENICILLAMINE]
Not Active: IC50 [1] | IC50 (Cytochrome P450 1A2) | Ki (Cytochrome P450 1A2) | IC50 [2] | IC50 [3] | IC50 [4]

O=C1NC(=O)C(c2ccccc2)(c2ccccc2)N1 [PHENYTOIN]
Not Active: IC50 [1] | IC50 (Cytochrome P450 1A2) | Ki (Cytochrome P450 1A2) | IC50 [2] | IC50 [3] | IC50 [4]

CCC1(c2ccccc2)C(=O)NCNC1=O [PRIMIDONE]
Not Active: IC50 [1] | IC50 (Cytochrome P450 1A2) | Ki (Cytochrome P450 1A2) | IC50 [2] | IC50 [3] | IC50 [4]

COc1ccc(CN(CCN(C)C)c2ccccn2)cc1 [PYRILAMINE]
Not Active: IC50 [1] | IC50 (Cytochrome P450 1A2) | Ki (Cytochrome P450 1A2) | IC50 [2] | IC50 [3] | IC50 [4]
